From a melting point compilation (Tetko et al.)

Row | SMILES | melting point
1 | CC(=NNc1nc(C)cc(C)n1)c1ccccc1C | 176 °C
2 | Clc1ncnc2sccc12 | 105 °C
3 | OCc1csc(-c2cccc(Cl)c2)n1 | 93 to 95 °C
4 | O=Cc1sc(Br)c2c1OCCO2 | 175 to 176 °C
5 | OC(c1ccc(F)cc1)C(O)c1ccc(F)cc1 (stereo not drawn) | 153 °C
6 | CC(=O)Nc1cccc(N)c1 | 84 to 88 °C
7 | NC(=O)c1cccc(C(F)(F)F)c1F | 96 °C
8 | CCCCOC(=O)c1ccccc1C(=O)OCCCC | -35 °C
9 | C=CCOc1ccc(NC(C)=O)cc1 | 90 to 92 °C
10 | Cc1cc(C(=O)O)c(C)[nH]1 | 200 °C
11 | CCCCc1ccc(C(N)=O)cc1 | 127 to 129 °C
12 | COc1ccc2ccc(=O)oc2c1 | 119 °C
13 | NC(=S)c1ccno1 | 163 °C
14 | ClCc1csc2ccc(Br)cc12 | 106 to 108 °C
15 | CCC1C(C)=NN=C(c2ccc(OC)c(OC)c2)c2cc(OC)c(OC)cc21 (stereo not drawn) | 156 °C
16 | CC(C)(C)c1ccc(OC(=O)c2ccccc2O)cc1 | 62 °C
17 | CC(=O)OC1C(=O)C2=C(C(=O)C13CC3C)C(O)C(O)C1C(C)(C)CCCC21C (stereo not drawn) | 180 to 182 °C
18 | N#CCc1ccc(OS(=O)(=O)c2cc(Cl)cc(Cl)c2)cc1 | 81 to 83 °C
19 | O=C1Cc2ccccc2C(=O)Cc2ccccc21 | 207 to 209 °C
20 | COc1ccc2c(C(=S)N(C)CC(=O)O)cccc2c1C(F)(F)F | 164 °C
21 | Sc1nnc2ccccn12 | 213 to 214 °C
22 | O=C(O)C1(c2cccc(F)c2)CCCC1 | 149 to 153 °C
23 | O=C=Nc1cc(F)cc2c1OCOC2 | 85 to 86 °C
24 | N#Cc1ccc(O)c(O)c1 | 154 to 156 °C
25 | CN1CCN(Cc2cccc(CO)c2)CC1 | 51 to 52 °C
26 | O=C1C(c2ccccc2)=[N+]([O-])c2cc([N+](=O)[O-])c(/C=C/c3ccccc3)cc21 | 233 °C

Row | SMILES | melting point
27 | Cc1ccc(NC(=O)C(C(F)(F)F)C(F)(F)F)cc1C | 189 °C
28 | S=C=Nc1ccc(-n2cccn2)cc1 | 97 to 99 °C
29 | O=C(Cl)c1cc(C(=O)Cl)c([N+](=O)[O-])cc1[N+](=O)[O-] | 107 °C
30 | CCOC(=O)N1COCc2c1ccc1cc3ccc4c(c3nc21)COCN4C(=O)OCC | 195 °C
31 | Cc1ncc(COP(=O)(O)O)c(C=O)c1O | 255 °C
32 | C/C=C/C1Nn2c(nnc2-c2ccc([N+](=O)[O-])cc2)S1 (stereo not drawn) | 150 °C
33 | O=C(O)CCc1ccccc1 | 107 °C
34 | NC(=O)C(Cc1ccccc1)NC(=O)OCc1ccccc1 (stereo not drawn) | 162 to 164 °C
35 | CC(C)(C)C(O)(CCc1ccc(Cl)cc1)Cn1cncn1 (stereo not drawn) | 105 °C
36 | CC(Cc1ccc(O)c(O)c1)C(C)Cc1ccc(O)c(O)c1 (stereo not drawn) | 186 °C
37 | O=C=Nc1cccc(-c2ncccn2)c1 | 45 to 47 °C
38 | NNc1nc(N)nc(-c2ccccn2)n1 | 287 to 289 °C
39 | COc1ccc(C2C3=C(CC(C)(C)CC3=O)Nc3ccc4ccccc4c32)cc1 (stereo not drawn) | 288 °C
40 | Cc1ccc2c(c1)C(=O)C2 | 46 °C
41 | Cc1ccc(C(c2ccc(C)o2)c2cc(Br)cc([N+](=O)[O-])c2O)o1 | 100 °C
42 | Cc1cc(C)c(I)c(C)c1 | 29 °C
43 | NNC(=O)c1sc2ccccc2c1Cl | 181 to 183 °C
44 | NNc1ccc(Cl)nn1 | 137 °C
45 | Clc1ccc2c(c1)C(N1CCNCC1)=Nc1ccccc1O2 | 176 °C
46 | CC(=O)C(C)O (stereo not drawn) | 15 °C
47 | C/C(=N\c1ccc(C(=O)O)cc1)c1c(O)c2ccccc2n(-c2ccccc2)c1=O | 236 to 238 °C
48 | N#CC1=C(N)Oc2[nH]nc(C(F)(F)F)c2C1c1ccc(Cl)cc1Cl (stereo not drawn) | 199 °C
49 | N#CCc1nc(-c2ccc3c(c2)OCCO3)cs1 | 116 to 118 °C
50 | O=C(NC(=O)c1c(F)cccc1F)Nc1ccc(Oc2ccc(C(F)(F)F)cc2Cl)cc1F | 167 °C
51 | CO[C@](C(=O)O)(c1ccccc1)C(F)(F)F | 44 °C
52 | O=S(=O)(Nc1c(F)c(F)cc(F)c1F)C(F)(F)F | 95 °C

Row | SMILES | melting point
53 | N#CCCNCCC#N | -6 °C
54 | NNC(=O)c1cc2cc(OCc3ccccc3)ccc2[nH]1 | 219 to 221 °C
55 | O=[N+]([O-])c1ccc(Cc2ccncc2)cc1 | 71 °C
56 | Cc1cccc(N)c1C(=O)O | 124 °C
57 | O=c1oc2cc(O)ccc2s1 | 160 °C
58 | O=C(O)C1CCCO1 (stereo not drawn) | 21 °C
59 | CC(O)c1cc(C(F)(F)F)cc(C(F)(F)F)c1 (stereo not drawn) | 72 °C
60 | O=Cc1cc(F)ccc1[N+](=O)[O-] | 94.5 °C
61 | NCC1CCCC(CN)C1 (stereo not drawn) | -70 °C
62 | OC1CCCC1C1CCCC1 (stereo not drawn) | 20 °C
63 | O=Cc1cccc(OCc2ccccc2)c1 | 56 °C
64 | CC(C)CCCCCCCCCCCO | 10.5 °C
65 | CCCNC(N)=S | 120 to 123 °C
66 | CC(=O)c1ccc(C(C)=O)c([N+](=O)[O-])c1 | 46 °C
67 | CC(=O)c1ccc(F)cc1O | 31.5 °C
68 | COCc1c(C(=O)OC(C)C)ncc2[nH]c3ccc(OCc4ccccc4)cc3c12 | 150 °C
69 | CC(=Cc1ccccc1)c1ccccc1 | 82 °C
70 | CCN(CC)CCOC(=O)C(O)(c1ccccc1)c1ccccc1 | 51 °C
71 | COc1ccccc1C1Nn2c(nnc2-c2cccnc2)S1 (stereo not drawn) | 221 °C
72 | COc1ccc2[nH]cc(CC(N)C(=O)O)c2c1 (racemic) | 258 to 261 °C
73 | Nc1ccc(-n2cccn2)cc1 | 54 to 55 °C
74 | CC1(C)OC(C)(C(OC(=O)c2ccc(Br)cc2)C2CCCCC2)CCC1C(=O)O (stereo not drawn) | 111 °C
75 | Cc1cc(C)c(C#N)c(C)c1 | 53 °C
76 | ClCC(Br)CBr (stereo not drawn) | 6 °C
77 | O=C(O)[C@H]1NCC[C@@H]1c1ccccc1 | 234 to 236 °C
78 | CCC(C(N)=O)n1nnc2ccccc21 (stereo not drawn) | 143 °C

Row | SMILES | melting point
79 | O=[N+]([O-])c1cccnc1Oc1ccc(F)cc1F | 63 to 65 °C
80 | N#Cc1ccc(Cl)nc1 | 118 °C
81 | O=C(Oc1ccc(Cl)cc1)c1ccc(Oc2ccc(C(=O)Oc3ccc(Cl)cc3)cc2)cc1 | 149 °C
82 | CCC1(O)CCC2C3CCC4=CCCCC4C3CCC21C (stereo not drawn) | 77 °C
83 | CC(=O)C=C(C)N | 39 °C
84 | COC(=O)c1cc(C)c(Br)s1 | 35 to 37 °C
85 | CC(=O)O[C@H](c1ccccc1)C(O)(c1ccccc1)c1ccccc1 | 248 to 252 °C
86 | OCc1ccc(-c2ccccc2)cc1 | 101 to 105 °C
87 | O=C(c1ccc2c3c(cccc13)CC2)C(O)c1ccccc1 (stereo not drawn) | 138 °C
88 | Cc1ccc(C(=O)O)c(C)c1 | 125 °C
89 | COc1cccc(C)c1C | 29 °C
90 | Cn1ncc(N2CCOCC2)c(Cl)c1=O | 131 to 133 °C
91 | CNC(C)C1C(O)CC2(C)C3CCC4C(C)(C)C(NC)CCC45CC35CCC12C (stereo not drawn) | 207 °C
92 | c1ccc(C2=C(c3ccccc3)C(c3ccccc3)C(c3ccccc3)=C2c2ccccc2)cc1 | 254 to 257 °C
93 | O=C(O)c1ccccc1SSc1ccccc1C(=O)O | 288 °C
94 | Cc1ccc(-c2ccc(C=C3N=C(c4ccccc4)OC3=O)o2)cc1 | 149 to 150 °C
95 | OC[C@H]1OC(Nc2ccccc2)C[C@@H]1O (stereo partly drawn) | 151 °C
96 | CCOC(=O)CCC(=O)c1ccc(OC)cc1 | 51 °C
97 | O=C(/C(=N\Nc1cccc(O)c1)S(=O)(=O)c1ccccc1)c1ccc(Cl)cc1 | 125 °C
98 | Cc1ccc(-c2cc(NN=c3c(C(F)(F)F)nc4ccccc4[nH]c3=O)[nH]n2)cc1 | 135 °C
99 | O=Cc1cc(Br)cc2c1OCC2 | 94 to 95 °C
100 | Brc1ccc(-c2cccs2)cc1 | 95 to 96 °C
101 | O=C1COc2ccccc21 | 102 °C
102 | O=[N+]([O-])c1cc(F)cc(F)c1 | 17 °C
103 | c1ccc(-c2nc3ccccc3nc2-c2ccc3c4c(cccc24)CC3)cc1 | 162 °C
104 | ClCC(Cl)(Cl)C(Cl)(Cl)Cl | 26 °C

Row | SMILES | melting point
105 | N#CC(C#N)=C1c2cc([N+](=O)[O-])ccc2-c2c1cc([N+](=O)[O-])cc2[N+](=O)[O-] | 267 °C
106 | COC(=O)c1ccc(C)c(Cl)c1 | 29 °C
107 | O=C(COc1ccccc1)c1ccc(O)cc1O | 207 to 208 °C
108 | CC(=O)OC1CCC(C(C)(C)C)CC1 (stereo not drawn) | -50 °C
109 | CCNc1nc(Cl)nc(NCC(=O)OCC)n1 | 228 °C
110 | CC(N)C(O)c1cccc(O)c1 (stereo not drawn) | 108 °C
111 | Brc1ccc(Oc2cc(Br)c(Br)cc2Br)c(Br)c1 | 82 °C
112 | Cc1ccc(F)cc1C#N | 43 to 45 °C
113 | NCCOS(=O)(=O)O | 277 to 280 °C
114 | OCc1cccc2[nH]ccc12 | 67 to 68 °C
115 | N[C@@H](Cc1ccc(O)c([N+](=O)[O-])c1)C(=O)O | 233 to 235 °C
116 | CC1=C(C=NNC(N)=O)C(=O)C(C(C)C)C=C1 (stereo not drawn) | 221 to 222 °C
117 | O=C(O)C1OC1C(=O)O (stereo not drawn) | 148 to 149 °C
118 | C=C[Si](OC(C)=O)(OC(C)=O)OC(C)=O | 7 °C
119 | O=C(OCc1ccccc1)ON1C(=O)CCC1=O | 80 °C
120 | CCSc1sc(C(=O)OC)c2c1C(=O)CC(C)(C)C2 | 116 to 119 °C
121 | Clc1cc2c(cc1Cl)Oc1c(Cl)c(Cl)cc(Cl)c1O2 | 206 °C
122 | O=S(=O)(O)CCNC1CCCCC1 | 320 °C
123 | O=C1OC(=O)c2cc3ccccc3cc21 | 249 °C
124 | Cc1cccnc1C#N | 86 °C
125 | CCOC(=O)C(=C(C)OC(=O)c1ccccc1)c1cc(C(C(=O)OCC)=C(C)OC(=O)c2ccccc2)c([N+](=O)[O-])cc1[N+](=O)[O-] | 167 °C
126 | CN(N)c1ccc(Cl)cc1[N+](=O)[O-] | 91 °C
127 | CN(C)CCOc1ccccc1N | 37 to 40 °C
128 | N=C(N)NC(N)=O | 105 °C
